Where two headings read alike, the source gives them in different places.
Experiments:
D2 = molecular target: T1, D2 (Oryctolagus cuniculus, UniProt G1T1Q0); assay: perfused rabbit ear artery test for D2-agonist activity
T1 construct: perfused rabbit ear artery test; from tissue; host or cells: perfused rabbit ear artery (sympathetic nerve terminals)

D2 -receptors = assay: peripheral D2-agonist selectivity (general statement, no test named); details: main locus of action at presynaptic dopaminergic receptors or sympathetic nerve terminals

T1 sequence (G1T1Q0 1-443): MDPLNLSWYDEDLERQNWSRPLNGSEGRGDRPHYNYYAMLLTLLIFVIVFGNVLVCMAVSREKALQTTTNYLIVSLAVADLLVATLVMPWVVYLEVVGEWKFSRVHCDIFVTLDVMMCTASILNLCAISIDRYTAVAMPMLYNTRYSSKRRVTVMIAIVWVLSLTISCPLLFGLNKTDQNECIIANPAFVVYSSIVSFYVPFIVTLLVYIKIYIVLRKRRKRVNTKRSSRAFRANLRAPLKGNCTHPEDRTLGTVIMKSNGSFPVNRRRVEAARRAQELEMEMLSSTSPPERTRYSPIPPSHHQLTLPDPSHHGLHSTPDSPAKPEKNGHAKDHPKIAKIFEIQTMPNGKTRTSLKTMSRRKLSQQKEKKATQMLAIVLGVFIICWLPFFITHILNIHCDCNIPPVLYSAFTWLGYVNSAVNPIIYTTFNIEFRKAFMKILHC

With `Br.CCCN(CCC)CCc1ccc(O)c2c1C(=O)C(=O)N2` [4-[2-(di-n-propylamino)ethyl]-7-hydroxyisatin hydrobromide] the EC50 (D2) was 2 to 7 nM and the “selective peripheral D2-agonist” value (D2 -receptors) was “selective peripheral D2 -agonists”.

`CCCN(CCC)CCc1ccc(O)c(O)c1` [N,N-di-n-propyldopamine, reference compound] showed an EC50 (D2; perfused rabbit ear artery test, D2-agonist activity, read-out: EC50) of 50 to 60 nM.

Reference: patent publication US4593106A, “4-[2-(dialkylamino)ethyl]-7-hydroxyisatins” (SmithKline Beckman Corporation, priority 1984, dated 1986)
